This assay has as its system pyramidal cell action potentials in hippocampal area CA3. Put plainly: Concomitant LFP and single unit recordings: AP firing and spike-phase coupling after Aβ. Type of assay: cell-based, mouse. The note with it: inhibitor applied after the application of Aβ. The protocol:
Having studied the synaptic effects of two T-type Ca^2+ channel inhibitors, we then proceeded to examine their ability to modulate the synchronization of hippocampal neuronal activity. We performed concomitant recordings of field potentials and single unit recordings to analyze the synchronization of action potentials with the phase of the gamma oscillations (27). […] To determine the spike phase of PC during a gamma oscillation, spike-phase coupling was calculated. […] This is observed as a slight shift to the right in the AP-phase distribution (7A,D). The desynchronization of PC activity is also evidenced by the reduction of the summation vector length (Pmzd: control: 0.3764±0.048, Aβ: 0.226±0.05, n=7, p=0.0078, FIG. 7B; Penfl: control: 0.3976±0.054, Aβ: 0.2661±0.05566, n=8, p=0.0078, FIG. 7E), which is represented by the change in the length of the arrow in FIGS. 7A and D.
Patch-clamp (whole-cell) recordings were performed from visually identified CA3 PC using The SliceScope (Scientifica, UK). Action Potentials (APs) were recorded from pyramidal cells in area CA3 as single units (submerged chamber) using standard ACSF-containing patch electrodes. For EPSC recordings (Vh=−70 mV) a potassium-based intracellular solution was used (in mM): 122.5 K-gluconate, 17.5 KCl, 4 ATPNa, 0.4 GTPNa, 10 HEPES, 0.2 EGTA, 2 MgCl, set to pH 7.2-7.3 with KOH, osmolarity 270-280 mOsm. For IPSC recordings (Vh=0 mV) a cesium-based intracellular solution was used (in mM): 140 CsMeSO4, 10 HEPES, 0.2 EGTA, 4 MGCl, 2 ATPNa, 0.2 GTPNa, 5 QX-314, set to pH 7.2-7.4 with CsOH, osmolarity 270-280 mOsm.
Spike phase-coupling analysis was performed on concomitant LFP recordings and single unit recordings using MATLAB custom-written routines in order to relate the PC spiking activity to ongoing gamma oscillations (48). To do this LFP recordings were pre-processed using a band pass filter set to 20-60 Hz (highpass: RC-single pole, lowpass: RC-single pole) using Clampfit 10.7. AP were detected using an amplitude threshold and the instantaneous phase of gamma oscillation was calculated using a Hilbert transform in order to determine the phase-angle at which each action potential occurred during ongoing oscillations. Phase-angles and gamma oscillations-phases were represented in polar plots and expressed in radians with the peak of the oscillation cycle corresponding to 0π and the valley corresponding to ±π in the polar plots. In order to search for the synchronization level of AP firing, AP phase-angles frequency-distribution were normalized, a Gaussian function was fitted and the half-width at half-maximum was then calculated as a measure of the synchronization level: the more AP are fired on the same phase-angle the more synchronized the neuronal activity is. The preferred phase-angle was calculated by averaging the AP phase-angles distribution of all the experiments and is represented by an arrow in the polar-plots. To test whether neurons fired in a phase-related manner all concomitant recordings were tested for circular uniformity using Rayleigh's test. Only recording with p values below 0.05 were considered for the analysis.

`OC1(c2ccc(Cl)c(C(F)(F)F)c2)CCN(CCCC(c2ccc(F)cc2)c2ccc(F)cc2)CC1` [Penfluridol]: the “AP count (AP firing frequency)” value was 1.79±0.43 Hz, the preferred phase angle came out at 4.09±0.2 radians and the summation vector length is on record as 0.355±0.05.
The matching figures for `O=c1[nH]c2ccccc2n1C1CCN(CCCC(c2ccc(F)cc2)c2ccc(F)cc2)CC1` [Pimozide]: 2.23±0.51 Hz, 4.180±0.15 radians and 0.335±0.072.

The record behind these values is patent US20210038589A1, “USES, COMPOSITIONS AND METHODS” (priority 2018, published 2021).
